According to patent publication US11331299B2, “Medicinal use of serrulatane diterpenes” (The University of Sydney, priority 2016, dated 2022):
pEC50, pIC50: −log10 of the molar value.

What was measured:
PRMT7 (h) = target: T1, PRMT7 (h) (Homo sapiens, UniProt Q9NVM4); test: Epigenetic enzyme assay, Methyltransferases (MTs); format: biochemical; conditions: read-out: % Inhibition of Control Values
T1 sequence (Q9NVM4 1-692): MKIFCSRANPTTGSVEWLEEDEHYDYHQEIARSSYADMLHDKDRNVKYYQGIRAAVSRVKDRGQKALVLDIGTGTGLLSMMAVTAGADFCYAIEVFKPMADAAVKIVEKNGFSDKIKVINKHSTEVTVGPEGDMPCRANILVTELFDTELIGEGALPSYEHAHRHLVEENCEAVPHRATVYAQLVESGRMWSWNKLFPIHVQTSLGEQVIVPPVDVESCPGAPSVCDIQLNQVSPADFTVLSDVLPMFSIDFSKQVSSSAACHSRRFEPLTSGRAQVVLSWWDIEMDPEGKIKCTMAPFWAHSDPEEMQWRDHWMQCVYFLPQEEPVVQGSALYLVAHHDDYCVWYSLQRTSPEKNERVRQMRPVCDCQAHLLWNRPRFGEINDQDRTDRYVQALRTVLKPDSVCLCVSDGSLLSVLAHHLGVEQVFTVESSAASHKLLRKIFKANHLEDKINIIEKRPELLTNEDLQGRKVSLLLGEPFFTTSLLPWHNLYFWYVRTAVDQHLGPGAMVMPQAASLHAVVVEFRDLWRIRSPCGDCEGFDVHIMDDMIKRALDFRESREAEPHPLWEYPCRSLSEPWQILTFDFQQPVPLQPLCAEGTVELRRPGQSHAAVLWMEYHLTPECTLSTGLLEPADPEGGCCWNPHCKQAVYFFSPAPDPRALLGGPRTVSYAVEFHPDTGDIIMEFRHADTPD

[1] = test system: Chemokine CXCR1/2 (IL-8, Non-Selective); test: Chemokine CXCR1/2 (IL-8, Non-Selective) radio ligand binding; set-up: species or system Human; conditions: 10 μM; assay year 2015
Protocol: (§1) The in vitro pharmacological studies were conducted by Eurofins PanLab (Taiwan) using the parameters shown in Table 13 with respect to appropriate literature references.

USP 16 (h) = USP 16 (h) (Homo sapiens, UniProt Q9Y5T5); test: Epigenetic enzyme assay, Ubiquitin modifying enzymes; format: biochemical; conditions: 10 μM; read-out: % Inhibition of Control Values
JMJD2A (h) = target: T2, JMJD2A (h) (Homo sapiens, UniProt O75164); test: Epigenetic enzyme assay, Demethylases (KDMs); format: biochemical; conditions: read-out: % Inhibition of Control Values
T2 sequence (O75164 1-1064): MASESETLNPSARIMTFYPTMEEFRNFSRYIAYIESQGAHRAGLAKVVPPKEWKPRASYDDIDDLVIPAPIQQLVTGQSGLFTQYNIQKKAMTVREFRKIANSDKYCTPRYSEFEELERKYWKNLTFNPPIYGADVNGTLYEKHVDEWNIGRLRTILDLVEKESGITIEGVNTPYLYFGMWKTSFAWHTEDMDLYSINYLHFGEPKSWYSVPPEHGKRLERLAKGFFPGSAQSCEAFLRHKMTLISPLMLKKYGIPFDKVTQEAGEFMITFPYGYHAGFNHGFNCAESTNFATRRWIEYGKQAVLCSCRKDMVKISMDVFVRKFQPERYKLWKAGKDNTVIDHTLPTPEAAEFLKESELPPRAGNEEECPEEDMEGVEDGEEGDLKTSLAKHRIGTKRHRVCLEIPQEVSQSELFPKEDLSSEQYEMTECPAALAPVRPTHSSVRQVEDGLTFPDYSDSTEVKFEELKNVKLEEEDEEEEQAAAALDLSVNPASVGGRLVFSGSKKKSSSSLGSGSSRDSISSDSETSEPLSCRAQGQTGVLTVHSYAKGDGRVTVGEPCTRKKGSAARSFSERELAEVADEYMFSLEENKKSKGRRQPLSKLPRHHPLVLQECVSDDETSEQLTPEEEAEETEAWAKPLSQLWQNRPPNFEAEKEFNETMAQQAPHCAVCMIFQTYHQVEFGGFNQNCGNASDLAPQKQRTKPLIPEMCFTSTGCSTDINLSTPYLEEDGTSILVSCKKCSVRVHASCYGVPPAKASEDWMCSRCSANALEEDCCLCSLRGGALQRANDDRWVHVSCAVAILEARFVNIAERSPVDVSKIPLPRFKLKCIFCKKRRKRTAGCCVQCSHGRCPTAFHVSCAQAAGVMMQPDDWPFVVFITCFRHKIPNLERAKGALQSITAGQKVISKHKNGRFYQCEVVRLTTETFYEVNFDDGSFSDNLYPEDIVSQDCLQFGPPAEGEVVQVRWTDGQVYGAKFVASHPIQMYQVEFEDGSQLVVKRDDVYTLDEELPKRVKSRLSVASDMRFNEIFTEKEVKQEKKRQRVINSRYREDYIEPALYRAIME

[2] = target: EZH2/EED/SUZ12 (h) (PRC2 complex) (Homo sapiens, UniProt Q15910); test: Epigenetic enzyme assay, Methyltransferases (MTs); format: biochemical; conditions: read-out: % Inhibition of Control Values
[3] = target: PKBgamma/AKT3(h) (substrate histone H3 full length) (Homo sapiens, UniProt Q9Y243); test: Epigenetic enzyme assay, Kinases; format: biochemical; conditions: read-out: % Inhibition of Control Values
SUV4-20H2 (h) = SUV4-20H2 (h) (Homo sapiens, UniProt Q86Y97); test: Epigenetic enzyme assay, Methyltransferases (MTs); format: biochemical; conditions: for inhibition at 10 µM: read-out: % Inhibition of Control Values
Hs 852.T = test: OncoPanel cell proliferation assay (10-day); format: cell-based, human; conditions: for pEC50 / GI50 / pIC50: Homo sapiens, Skin (Melanoma); for pEC50: read-out: Cell Count EC50; for GI50: read-out: Cell Count GI50; for pIC50: read-out: Cell Count IC50
Steroid 5alpha-Reductase = test: Steroid 5α-Reductase; format: biochemical, Wistar Rat; conditions: 10 μM; assay year 2015
Protocol: as §1

HMG-CoA Reductase = target: T3, HMG-CoA Reductase (Homo sapiens, UniProt P04035); test: HMG-CoA Reductase; format: biochemical; conditions: assay year 2015, read-out: % Control Response
T3 construct: host or cells: E. coli
T3 sequence (P04035 426-888 limits assumed): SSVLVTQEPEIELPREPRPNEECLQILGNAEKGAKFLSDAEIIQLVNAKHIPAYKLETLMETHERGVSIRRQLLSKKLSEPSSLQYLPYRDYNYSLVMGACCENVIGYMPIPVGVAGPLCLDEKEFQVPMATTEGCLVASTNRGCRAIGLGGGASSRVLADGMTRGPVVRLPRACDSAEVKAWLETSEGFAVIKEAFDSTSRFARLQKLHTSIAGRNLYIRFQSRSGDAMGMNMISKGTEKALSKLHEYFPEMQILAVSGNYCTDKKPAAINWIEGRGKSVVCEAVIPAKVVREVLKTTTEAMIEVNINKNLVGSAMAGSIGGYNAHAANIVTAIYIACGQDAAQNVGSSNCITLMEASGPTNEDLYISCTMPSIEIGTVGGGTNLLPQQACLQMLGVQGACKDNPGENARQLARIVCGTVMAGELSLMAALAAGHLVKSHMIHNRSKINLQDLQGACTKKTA
Protocol: as §1

SUV4-20H2 (h), sequence (Q86Y97 whole entry): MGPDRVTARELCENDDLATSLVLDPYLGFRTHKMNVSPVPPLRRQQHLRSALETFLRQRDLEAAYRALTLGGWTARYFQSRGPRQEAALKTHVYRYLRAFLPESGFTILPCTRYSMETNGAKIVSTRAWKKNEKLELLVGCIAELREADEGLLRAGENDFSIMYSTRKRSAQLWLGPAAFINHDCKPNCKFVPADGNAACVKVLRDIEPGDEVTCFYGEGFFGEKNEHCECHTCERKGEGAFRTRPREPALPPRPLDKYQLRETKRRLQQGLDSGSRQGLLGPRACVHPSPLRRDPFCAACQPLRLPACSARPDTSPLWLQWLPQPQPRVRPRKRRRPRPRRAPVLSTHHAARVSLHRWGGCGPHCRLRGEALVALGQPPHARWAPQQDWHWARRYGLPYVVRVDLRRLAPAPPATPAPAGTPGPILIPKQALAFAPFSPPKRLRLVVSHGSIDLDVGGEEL
PKBgamma/AKT3(h) (substrate histone H3 full length), sequence (Q9Y243 whole entry): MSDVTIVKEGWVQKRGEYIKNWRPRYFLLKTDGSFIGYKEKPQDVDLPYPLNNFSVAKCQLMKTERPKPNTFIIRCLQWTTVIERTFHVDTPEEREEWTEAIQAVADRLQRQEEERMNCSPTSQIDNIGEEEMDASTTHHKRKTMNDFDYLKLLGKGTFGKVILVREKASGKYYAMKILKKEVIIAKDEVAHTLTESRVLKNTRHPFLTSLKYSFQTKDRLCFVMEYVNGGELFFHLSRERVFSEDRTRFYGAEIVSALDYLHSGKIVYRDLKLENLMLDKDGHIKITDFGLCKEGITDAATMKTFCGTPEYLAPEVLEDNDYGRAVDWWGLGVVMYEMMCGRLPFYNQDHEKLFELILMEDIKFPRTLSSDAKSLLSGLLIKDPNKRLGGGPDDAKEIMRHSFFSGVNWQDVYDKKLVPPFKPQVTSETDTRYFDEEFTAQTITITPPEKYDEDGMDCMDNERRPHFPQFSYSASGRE
USP 16 (h), sequence (Q9Y5T5 whole entry): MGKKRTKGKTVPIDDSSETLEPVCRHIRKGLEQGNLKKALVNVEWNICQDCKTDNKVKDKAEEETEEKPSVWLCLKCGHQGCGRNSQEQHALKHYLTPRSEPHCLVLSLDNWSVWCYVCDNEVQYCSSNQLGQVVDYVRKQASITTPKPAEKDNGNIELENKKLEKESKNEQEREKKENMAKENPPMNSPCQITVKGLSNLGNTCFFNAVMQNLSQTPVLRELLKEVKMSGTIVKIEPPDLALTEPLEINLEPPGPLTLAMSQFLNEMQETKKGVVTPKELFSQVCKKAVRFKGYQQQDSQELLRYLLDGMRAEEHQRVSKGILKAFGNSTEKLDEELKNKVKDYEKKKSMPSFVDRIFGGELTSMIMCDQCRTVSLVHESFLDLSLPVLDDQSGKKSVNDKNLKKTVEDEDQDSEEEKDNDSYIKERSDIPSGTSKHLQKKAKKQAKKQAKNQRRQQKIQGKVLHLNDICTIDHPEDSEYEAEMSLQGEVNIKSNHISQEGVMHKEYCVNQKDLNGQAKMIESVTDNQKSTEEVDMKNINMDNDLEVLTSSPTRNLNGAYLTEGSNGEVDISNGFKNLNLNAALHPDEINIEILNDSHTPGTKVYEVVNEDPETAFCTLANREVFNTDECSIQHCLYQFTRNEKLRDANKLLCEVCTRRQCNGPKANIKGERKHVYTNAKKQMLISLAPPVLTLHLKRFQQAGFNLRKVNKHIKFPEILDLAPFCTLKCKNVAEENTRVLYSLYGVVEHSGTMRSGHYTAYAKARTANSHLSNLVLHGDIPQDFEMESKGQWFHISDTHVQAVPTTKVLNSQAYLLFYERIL
EZH2/EED/SUZ12 (h) (PRC2 complex), sequence (Q15910 whole entry): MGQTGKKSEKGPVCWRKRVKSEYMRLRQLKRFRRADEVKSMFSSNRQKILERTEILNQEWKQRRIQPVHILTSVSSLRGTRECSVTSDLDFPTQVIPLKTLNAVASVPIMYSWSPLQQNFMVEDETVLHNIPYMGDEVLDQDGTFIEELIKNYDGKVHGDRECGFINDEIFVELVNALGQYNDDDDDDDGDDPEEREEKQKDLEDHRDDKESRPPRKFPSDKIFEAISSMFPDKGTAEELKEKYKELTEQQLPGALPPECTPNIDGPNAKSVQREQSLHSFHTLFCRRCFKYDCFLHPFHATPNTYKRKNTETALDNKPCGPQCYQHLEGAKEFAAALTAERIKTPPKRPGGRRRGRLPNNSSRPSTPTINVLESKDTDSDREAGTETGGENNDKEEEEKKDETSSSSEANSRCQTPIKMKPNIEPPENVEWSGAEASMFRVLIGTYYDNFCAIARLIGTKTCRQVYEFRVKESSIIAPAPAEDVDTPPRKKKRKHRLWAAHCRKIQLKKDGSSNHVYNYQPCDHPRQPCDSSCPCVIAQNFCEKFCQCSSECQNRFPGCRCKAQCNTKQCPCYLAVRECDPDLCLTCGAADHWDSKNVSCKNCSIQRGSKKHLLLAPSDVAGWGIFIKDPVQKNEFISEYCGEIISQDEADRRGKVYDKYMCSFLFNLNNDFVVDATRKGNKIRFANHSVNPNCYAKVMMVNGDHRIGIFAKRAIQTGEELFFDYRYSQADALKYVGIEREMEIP
EZH2/EED/SUZ12 (h) (PRC2 complex), sequence (O75530 whole entry partner): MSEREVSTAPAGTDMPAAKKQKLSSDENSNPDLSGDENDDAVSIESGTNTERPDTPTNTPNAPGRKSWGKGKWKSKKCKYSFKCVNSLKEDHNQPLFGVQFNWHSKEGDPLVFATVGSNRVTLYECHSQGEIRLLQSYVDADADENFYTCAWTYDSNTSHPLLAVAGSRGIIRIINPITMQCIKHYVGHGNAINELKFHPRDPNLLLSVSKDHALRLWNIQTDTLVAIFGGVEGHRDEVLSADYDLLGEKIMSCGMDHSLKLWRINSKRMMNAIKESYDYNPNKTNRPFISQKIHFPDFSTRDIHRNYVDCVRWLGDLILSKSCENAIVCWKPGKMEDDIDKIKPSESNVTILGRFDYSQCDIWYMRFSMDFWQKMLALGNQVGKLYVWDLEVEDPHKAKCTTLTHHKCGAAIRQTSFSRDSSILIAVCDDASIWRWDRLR
EZH2/EED/SUZ12 (h) (PRC2 complex), sequence (Q15022 whole entry partner): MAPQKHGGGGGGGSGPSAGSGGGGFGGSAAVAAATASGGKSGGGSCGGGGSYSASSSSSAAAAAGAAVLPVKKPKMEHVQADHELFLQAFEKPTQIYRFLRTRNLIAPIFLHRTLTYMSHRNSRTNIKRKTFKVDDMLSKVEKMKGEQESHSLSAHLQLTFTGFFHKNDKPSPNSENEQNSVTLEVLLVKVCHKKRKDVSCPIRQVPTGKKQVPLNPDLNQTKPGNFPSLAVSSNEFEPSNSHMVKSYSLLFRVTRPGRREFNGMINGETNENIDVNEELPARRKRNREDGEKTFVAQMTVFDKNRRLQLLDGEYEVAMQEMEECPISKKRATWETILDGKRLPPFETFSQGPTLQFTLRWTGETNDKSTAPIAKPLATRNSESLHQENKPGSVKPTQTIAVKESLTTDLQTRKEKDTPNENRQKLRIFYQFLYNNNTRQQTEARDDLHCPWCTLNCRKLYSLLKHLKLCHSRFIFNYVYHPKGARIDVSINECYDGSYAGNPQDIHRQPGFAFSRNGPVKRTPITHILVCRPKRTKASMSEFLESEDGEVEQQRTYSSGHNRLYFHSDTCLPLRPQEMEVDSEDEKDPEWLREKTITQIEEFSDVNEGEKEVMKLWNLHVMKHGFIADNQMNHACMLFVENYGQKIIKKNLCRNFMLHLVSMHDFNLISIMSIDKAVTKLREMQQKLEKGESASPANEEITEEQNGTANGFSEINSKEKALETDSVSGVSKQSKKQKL

Row | Compound | inhibition at 10 µM (PRMT7 (h)) [%] | % Control Response [1] [%] | inhibition at 10 µM (USP 16 (h)) [%] | inhibition at 10 µM (JMJD2A (h)) [%] | inhibition at 10 µM [2] [%] | inhibition at 10 µM [3] [%] | inhibition at 10 µM (SUV4-20H2 (h)) [%] | pEC50 (Hs 852.T) | GI50 (Hs 852.T) [µM] | pIC50 (Hs 852.T) | % Control Response (Steroid 5alpha-Reductase) [%] | remaining activity at 10 µM (HMG-CoA Reductase) [%] | further results
1 | CC(C)=CCC[C@H](CO)[C@@H]1CC[C@@H](C)c2c1cc(C)c(O)c2O [Compound 1, 7,8,18-trihydroxyserrulat-14-ene] | -2 | 30 | 11 | 29 | 19 | 5 | 11 | 5.60 | 2.42 | 5.59 | 2 | 29 | Relative cell count (%) Mean (Hs 852.T; 3.00E+00 microM): 41.6%; Relative cell count (%) Mean (Hs 852.T; 3.00E+01 microM): 2.7%; Relative cell count (%) Mean (Hs 852.T; 3.01E−01 microM): 95.3%; Relative cell count (%) Mean (Hs 852.T; 3.01E−02 microM): 94.5%; Relative cell count (%) Mean (Hs 852.T; 3.02E−03 microM): 104.5%; Relative cell count (%) Mean (Hs 852.T; 9.49E+00 microM): 13.1%; Relative cell count (%) Mean (Hs 852.T; 9.51E−01 microM): 85.5%; Relative cell count (%) Mean (Hs 852.T; 9.52E−02 microM): 92.2%; Relative cell count (%) Mean (Hs 852.T; 9.53E−03 microM): 100.2%; Relative cell count (%) Mean (Hs 852.T; 9.55E−04 microM): 104.3%
2 | CC(C)=CCC[C@@H]1COc2c(C)cc(O)c3c2[C@H]1CC[C@H]3C [Compound 3, 5,18-epoxy-8-hydroxyserrulat-14-ene] | -36 | −1 | 12 | 12 | 4 | 3 | -45 |  |  |  | 3 | 24 | 
3 | Nc1ncnc2c1ncn2[C@@H]1O[C@H](CSCC[C@H](N)C(=O)O)[C@@H](O)[C@H]1O [SAH] |  |  |  |  |  |  |  |  |  |  |  |  | pIC50 (SUV4-20H2 (h); read-out: Reference IC50): 5.33
4 | CC(C)=CCC[C@H](C)[C@@H]1CC[C@@H](C)c2c1cc(C)c(O)c2O [Compound 4, 7,8-dihydroxyserrulat-14-ene] |  |  |  |  |  |  |  | 4.92 | 11.6 | 4.92 |  |  | 
5 | CC(C)=CCC[C@@H]1C(O)Oc2c(C)cc(O)c3c2[C@H]1CC[C@H]3C (some centres unmarked) [Compound 2, 5,18-epoxyserrulat-14-en-8,18-diol] | 0 | −28 | 14 | -10 | 26 | -7 | 20 | 4.81 | 14.7 | 4.81 | −6 | 27 | 
